Reference: paper PMC10435442, “Developing multitarget coumarin based anti-breast cancer agents: synthesis and molecular modeling study” (Scientific Reports, 2023)
Converted amounts (≈) assume the structure as drawn. “And” between values parts separate entries of the source, which are not always exact repeats. Equal entries are not always repeated. Where two headings read alike, the source gives them in different places. Blank lines part the entries; values can stand above or below the compound they belong to.

What was measured:
[1] = test system: ARO; design: method as in PMID 21341743, PMID 28512028, PMID 15358790, PMID 24607878, PMID 30360952; settings: reported coumarin derivatives, Fig. 1b; read-out: ARO inhibitior IC50; cited from earlier work
[2] = test system: Caspase-9; assay: Caspase-9 level (ELISA) in treated cells; assay type: cell-based, human; settings: MDA-MB-231 cells
[3] = biological target: EGFR (Homo sapiens, UniProt P00533); assay: In vitro EGFR enzyme inhibition assay (ELISA)
Chain of EGFR (P00533 25-1210): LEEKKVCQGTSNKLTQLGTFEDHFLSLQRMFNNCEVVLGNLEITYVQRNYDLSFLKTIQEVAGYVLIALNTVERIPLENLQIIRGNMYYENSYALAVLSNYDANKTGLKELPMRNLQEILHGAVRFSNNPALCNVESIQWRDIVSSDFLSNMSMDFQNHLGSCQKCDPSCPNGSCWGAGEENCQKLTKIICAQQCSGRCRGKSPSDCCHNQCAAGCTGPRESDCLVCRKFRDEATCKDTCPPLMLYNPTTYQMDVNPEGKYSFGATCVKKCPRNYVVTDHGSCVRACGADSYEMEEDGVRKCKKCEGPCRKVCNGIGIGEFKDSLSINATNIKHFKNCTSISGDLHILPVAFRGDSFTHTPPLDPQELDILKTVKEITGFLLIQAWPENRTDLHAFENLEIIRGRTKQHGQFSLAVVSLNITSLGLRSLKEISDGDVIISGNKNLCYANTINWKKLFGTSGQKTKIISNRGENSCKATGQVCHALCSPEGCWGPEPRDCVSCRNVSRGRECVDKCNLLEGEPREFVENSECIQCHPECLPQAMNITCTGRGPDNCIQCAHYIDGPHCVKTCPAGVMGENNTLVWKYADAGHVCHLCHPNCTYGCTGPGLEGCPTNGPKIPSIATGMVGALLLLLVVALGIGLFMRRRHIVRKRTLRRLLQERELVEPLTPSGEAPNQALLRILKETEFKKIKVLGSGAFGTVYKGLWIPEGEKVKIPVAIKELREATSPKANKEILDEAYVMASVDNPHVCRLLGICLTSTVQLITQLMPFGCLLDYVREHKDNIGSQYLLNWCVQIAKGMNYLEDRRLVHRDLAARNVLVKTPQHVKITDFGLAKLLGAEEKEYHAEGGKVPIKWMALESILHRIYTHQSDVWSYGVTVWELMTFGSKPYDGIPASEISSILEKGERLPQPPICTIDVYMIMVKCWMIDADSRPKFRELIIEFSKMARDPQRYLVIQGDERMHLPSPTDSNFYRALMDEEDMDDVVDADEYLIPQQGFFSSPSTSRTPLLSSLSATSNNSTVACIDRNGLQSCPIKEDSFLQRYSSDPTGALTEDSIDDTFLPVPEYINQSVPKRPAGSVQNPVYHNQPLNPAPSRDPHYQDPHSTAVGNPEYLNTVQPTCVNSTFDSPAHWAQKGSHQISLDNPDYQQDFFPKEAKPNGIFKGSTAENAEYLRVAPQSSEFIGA

[4] = test system: MDA-MB-231; assay: MTT cytotoxicity assay, MDA-MB-231; settings: for IC50: Homo sapiens; for % viability: MDA
[5] = test system: Bcl-2; assay: Bcl-2 level (ELISA) in treated cells; assay type: cell-based, human; settings: MDA-MB-231 cells
[6] = test system: MCF-10A; assay: MTT cytotoxicity assay, nonmalignant MCF-10A; settings: read-out: MCF-10A IC50; MTT, nonmalignant MCF-10A;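 further: MTT assay with absorbance read at 570 nm after 48 h exposure of cells to serial compound concentrations at 37 °C, testing selectivity against nonmalignant versus cancer cells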
[7] = test system: Bax; assay: Bax level (ELISA) in treated cells; assay type: cell-based, human; settings: MDA-MB-231 cells
[8] = test system: MDA-MB-231; assay: DNA flow cytometric cell cycle analysis, MDA-MB-231; assay type: cell-based, human
[9] = in vitro; settings: human, MCF-10A cells (nonmalignant breast)
[10] = test system: MCF-7; assay: MTT cytotoxicity assay, MCF-7; settings: for IC50: Homo sapiens
[11] = test system: MDA-MB-231; assay: Annexin V-FITC/PI dual staining apoptosis assay, MDA-MB-231; assay type: cell-based, human
[12] = MDA-MB-231, compared to control

Compound: O=c1cc(Cn2ccnc2)c2ccc(Oc3ccc(F)c(F)c3)cc2o1 [II]
IC50 [1]: 47 nM

Compound: COc1ccc2c(Cc3ccccc3)c(-c3ccc(Cl)cc3)c(=O)oc2c1 [IV]
IC50 [1]: 80 nM

IC50 ([3]; EGFR IC50, lab report 01-11-2021, 10 compounds): 86.9 nM | IC50 ([3]; EGFR inhibition IC50): 86 ± 6 nM | Percentage above Reference IC50 (potency relative to erlotinib) ([3]; reference Erlotinib): 97.67% and 97.674% | IC50 at 48 h [9]: 37.1 ± 1.81 µg/mL (≈ 76.8 µM)
Compound: O=C(COc1ccc2c(COC(=O)c3ccc(Cl)cc3)cc(=O)oc2c1)c1ccc(Cl)cc1 [Compound 10, {7-[2-(4-Chlorophenyl)-2-oxoethoxy]-2-oxo-2H-chromen-4-yl}methyl 4-chlorobenzoate]
Caspase-9 Conc. [2]: 16.77±0.37^be ng/ml | IC50 ([4]; MDA-MB-231, read-out: MDA-MBA-231 IC50): 2300 ± 60 nM | IC50 ([4]; MDA-MB-231, read-out: cytotoxicity_IC50 MDA): 1.09 ± 0.06 µg/mL | % viability ([4]; 0.4ug (log conc. -0.41)): 56.384% | % viability ([4]; 1.6ug (log conc. 0.19)): 47.375% | % viability ([4]; 6.25ug (log conc. 0.8)): 40.274% | % viability ([4]; 25ug (log conc. 1.4)): 30.609% | % viability ([4]; 100ug (log conc. 2)): 23.5084% | Bcl-2 Conc [5]: 4.088±0.058^cf ng/ml | IC50 [6]: 76800 ± 1810 nM | Bax Conc [7]: 0.249±0.0079^be ng/ml | Comment (cell cycle phase of growth arrest) ([8]; MDA): cell growth arrest@ S | DNA content %G0-G1 ([8]; MDA): 51.97% | DNA content %Pre-G1 ([8]; MDA): 33.43% | DNA content %S ([8]; MDA): 43.82% | %G0-G1 ([8]; MDA-MB-231, IC50 concentration): 51.97^ad ^AC % | %Pre-G1 ([8]; MDA-MB-231, IC50 concentration): 33.43^bdf ^AB % | %S ([8]; MDA-MB-231, IC50 concentration): 43.82^bc ^D % | cell cycle arrest at S phase [8, 12]: 1.59 folds | increase of apoptotic cells in pre-G1 phase [8, 12]: 16.22 folds | viability at 48 h, 0.4 ug [9]: 82.6% | viability at 48 h, 1.6 ug [9]: 69.1% | viability at 48 h, 6.25 ug [9]: 61.1% | viability at 48 h, 25 ug [9]: 52.6% | viability at 48 h, 100 ug [9]: 44.4% | IC50 ([10]; MCF7, read-out: MCF-7 IC50): 95800 ± 2810 nM | IC50 ([10]; MCF7, read-out: cytotoxicity_IC50 mcf7): 46.3 ± 2.81 µg/mL | % viability ([10]; MCF7, 0.4ug): 85.616% | % viability ([10]; MCF7, 1.6ug): 73.288% | % viability ([10]; MCF7, 6.3ug): 64.521% | % viability ([10]; MCF7, 25ug): 54.315% | % viability ([10]; MCF7, 100ug): 44.863% | Apoptosis Early ([11]; MDA): 9.61 | Apoptosis Late ([11]; MDA): 17.83 | Apoptosis Total ([11]; MDA): 33.43 | Necrosis ([11]; MDA): 5.99 | % Apoptosis Early ([11]; MDA-MB-231): 9.61^df % | % Apoptosis Late ([11]; MDA-MB-231): 17.83^df % | % Apoptosis Total ([11]; MDA-MB-231): 33.43% and 33.43^df % | % Necrosis ([11]; MDA-MB-231): 5.99%
